Data on 24 molecules can be found in patent US11339156B2, “3-(1H-pyrazol-4-yl)pyridine allosteric modulators of the M4 muscarinic acetylcholine receptor” (Merck Sharp & Dohme Corp., priority 2017, dated 2022).

This test addresses T1, human M4 muscarinic acetylcholine receptor (Homo sapiens, UniProt P08173).
T1 construct: expressed in transfected cells
T1 sequence (P08173 1-479): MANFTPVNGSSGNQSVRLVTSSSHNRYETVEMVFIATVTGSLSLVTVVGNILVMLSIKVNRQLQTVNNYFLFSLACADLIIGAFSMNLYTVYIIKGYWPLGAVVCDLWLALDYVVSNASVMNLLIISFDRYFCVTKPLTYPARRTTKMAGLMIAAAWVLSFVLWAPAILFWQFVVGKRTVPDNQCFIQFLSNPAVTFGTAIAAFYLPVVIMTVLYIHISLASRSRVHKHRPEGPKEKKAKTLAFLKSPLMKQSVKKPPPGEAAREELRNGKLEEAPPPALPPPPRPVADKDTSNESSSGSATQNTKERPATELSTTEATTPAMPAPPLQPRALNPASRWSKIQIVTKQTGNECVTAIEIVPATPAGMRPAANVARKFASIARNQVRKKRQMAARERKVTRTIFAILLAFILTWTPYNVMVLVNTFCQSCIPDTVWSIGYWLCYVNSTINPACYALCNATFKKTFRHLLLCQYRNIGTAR
Briefly: human FLIPR-based M4 PAM assay (CHO-K1 cells with human M4 receptor and Gαqi5, calcium dye fluorescence). As to conditions: inflection point of 4 parameter logistic fit; acetylcholine added at 20% of maximum response; read-out: M4PAM IP. The format is cell-based. The method, boiled down:
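The FLIPR read recorded 4 min after compound was added across a concentration range, then 3.5 min after acetylcholine giving 20% of its maximal response, with an occasional extra EC70 addition. Cells were dye-loaded for about 1 h at 37 °C. Potency is the curve inflection point from a four-parameter logistic fit.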
As to `Cc1ccc(-c2cnn(CC34CCC(CC3)CC4)c2)c(-c2ccc3c(c2)C(=O)N(CC2CC2)C3)n1` [Example 12, 6-{3-[1-(bicyclo[2.2.2]oct-1-ylmethyl)-1H-pyrazol-4-yl]-6-methylpyridin-2-yl}-2-(cyclopropylmethyl)-2,3-dihydro-1H-isoindol-1-one], the EC50 was found to be 24.5 nM.
For `Cc1cn2ccc(-c3ncccc3-c3cnn(CC(C)(C)C)c3)cc2n1` [Example 87, 7-{3-[1-(2,2-dimethylpropyl)-1H-pyrazol-4-yl]pyridin-2-yl}-2-methylimidazo[1,2-a]pyridine] the value was 121 nM; for `CCC(F)(F)Cn1cc(-c2ccc(C#N)nc2-c2ccn3ccnc3c2)cn1` [Example 18, 5-[1-(2,2-difluorobutyl)-1H-pyrazol-4-yl]-6-imidazo[1,2-a]pyridin-7-ylpyridine-2-carbonitrile], 61.4 nM; for `CC(C)(C)Cn1cc(-c2ccc(C#N)nc2-c2ccc3nn[nH]c3c2)cn1` [Example 79, 6-(1H-benzotriazol-6-yl)-5-[1-(2,2-dimethylpropyl)-1H-pyrazol-4-yl]pyridine-2-carbonitrile], 38.4 nM.
Consider `Cc1cn2ccc(-c3nc(C#N)ccc3-c3cnn(CCC(F)(F)F)c3)cc2n1` [Example 40, 6-(2-methylimidazo[1,2-a]pyridin-7-yl)-5-[1-(3,3,3-trifluoropropyl)-1H-pyrazol-4-yl]pyridine-2-carbonitrile], for which the EC50 was 141 nM.
Then `Cc1ccc(-c2cnn(CC34CC(C3)C4)c2)c(-c2ccc3c(c2)C(=O)N(C)C3)n1` [Example 7, 6-{3-[1-(bicyclo[1.1.1]pent-1-ylmethyl)-1H-pyrazol-4-yl]-6-methylpyridin-2-yl}-2-methyl-2,3-dihydro-1H-isoindol-1-one], with 17.6 nM; and `Cn1cnc2cc(-c3nc(C#N)ccc3-c3cnn(CC4(C)CCOCC4)c3)ccc21` [Example 38, 6-(1-methyl-1H-benzimidazol-5-yl)-5-{1-[(4-methyltetrahydro-2H-pyran-4-yl)methyl]-1H-pyrazol-4-yl}pyridine-2-carbonitrile], with 165 nM; and `Cc1ccc(-c2cnn(CCC(C)(C)F)c2)c(-c2ccc3c(c2)C(=O)NC3)n1` [Example 10, 6-{3-[1-(3-fluoro-3-methylbutyl)-1H-pyrazol-4-yl]-6-methylpyridin-2-yl}-2,3-dihydro-1H-isoindol-1-one], with 130 nM.
Then `CC(C)(Cn1cc(-c2ccc(C(N)=O)nc2-c2ccn3ccnc3c2)cn1)C(F)(F)F` [Example 132, 6-(imidazo[1,2-a]pyridin-7-yl)-5-(1-(3,3,3-trifluoro-2,2-dimethylpropyl)-1H-pyrazol-4-yl)picolinamide], with 249 nM.
Then `Fc1cc(-c2cnn(CC3(C(F)(F)F)CC3)c2)c(-c2ccn3ccnc3c2)nc1F` [Example 53, 7-(5,6-difluoro-3-(1-((1-(trifluoromethyl)cyclopropyl)methyl)-1H-pyrazol-4-yl)pyridin-2-yl)imidazo[1,2-a]pyridine], with 234 nM.
As for `Cc1cn2ccc(-c3ncc(F)cc3-c3cnn(CC(C)(C)C(F)F)c3)cc2n1` [Example 106, 7-{3-[1-(3,3-difluoro-2,2-dimethylpropyl)-1H-pyrazol-4-yl]-5-fluoropyridin-2-yl}-2-methylimidazo[1,2-a]pyridine], the EC50 was determined as 69.5 nM.
For `Cc1nc2cc(-c3ncc(F)cc3-c3cnn(CC4CC(F)(F)C4)c3)ccc2n1C` [Example 61, 5-(3-(1-((3,3-difluorocyclobutyl)methyl)-1H-pyrazol-4-yl)-5-fluoropyridin-2-yl)-1,2-dimethyl-1H-benzo[d]imidazole] the value was 161 nM; for `CC(C)CCn1cc(-c2ccc(Cl)nc2-c2ccc3c(c2)C(=O)N(Cc2ccccn2)C3)cn1` [Example 112, 6-{6-chloro-3-[1-(3-methylbutyl)-1H-pyrazol-4-yl]pyridin-2-yl}-2-(pyridin-2-ylmethyl)-2,3-dihydro-1H-isoindol-1-one], 60.8 nM.
For `CC(C)(C#N)Cn1cc(-c2ccc(C#N)nc2-c2ccn3ccnc3c2)cn1` [Example 46, 5-[1-(2-cyano-2-methylpropyl)-1H-pyrazol-4-yl]-6-imidazo[1,2-a]pyridin-7-ylpyridine-2-carbonitrile] the value was 242 nM; for `Cc1nc2cc(-c3nc(C#N)ccc3-c3cnn(CC(C)(F)F)c3)ccc2n1C` [Example 31, 5-[1-(2,2-difluoropropyl)-1H-pyrazol-4-yl]-6-(1,2-dimethyl-1H-benzimidazol-5-yl)pyridine-2-carbonitrile], 163 nM; for `Cc1ccc(-c2cnn(CCC(C)C)c2C#N)c(-c2ccn3ccnc3c2)n1` [Example 136, 4-(2-imidazo[1,2-a]pyridin-7-yl-6-methylpyridin-3-yl)-1-(3-methylbutyl)-1H-pyrazole-5-carbonitrile], 741 nM.
Then `CC(C)CCn1cc(-c2cc(Cl)cnc2-c2ccc3scnc3c2)cn1` [Example 78, 5-{5-chloro-3-[1-(3-methylbutyl)-1H-pyrazol-4-yl]pyridin-2-yl}-1,3-benzothiazole], with 204 nM.
On to `CN1Cc2ccc(-c3nc(C#N)c(F)cc3-c3cnn(CC4(C(F)(F)F)CC4)c3)cc2C1=O` [Example 54, 3-fluoro-6-(2-methyl-3-oxo-2,3-dihydro-1H-isoindol-5-yl)-5-(1-{[1-(trifluoromethyl)cyclo-propyl]methyl}-1H-pyrazol-4-yl)pyridine-2-carbonitrile], for which the EC50 came to 44.7 nM.
Then `Cc1nc2cc(-c3nc(C#N)ccc3-c3cnn(CC(C)(C)C)c3)cnc2n1C` [Example 89, 6-(2,3-dimethyl-3H-imidazo[4,5-b]pyridin-6-yl)-5-[1-(2,2-dimethylpropyl)-1H-pyrazol-4-yl]pyridine-2-carbonitrile], with 116 nM; and `Cc1ccc(-c2cnn(CC(C)(C)C)c2)c(-c2ccn3cnnc3c2)n1` [Example 71, 7-{3-[1-(2,2-dimethylpropyl)-1H-pyrazol-4-yl]-6-methylpyridin-2-yl}[1,2,4]triazolo[4,3-a]pyridine], with 55.8 nM.
For `Cc1ccc(-c2cnn(CC(C)C)c2)c(-c2ccc3c(c2)C(=O)N(C2CC2)C3)n1` [Example 96, 2-cyclopropyl-6-{6-methyl-3-[1-(2-methylpropyl)-1H-pyrazol-4-yl]pyridin-2-yl}-2,3-dihydro-1H-isoindol-1-one] the value was 197 nM; for `CN1Cc2ccc(-c3nc(Cl)ccc3-c3cnn(CC4CCCCC4)c3)cc2C1=O` [Example 115, 6-{6-chloro-3-[1-(cyclohexylmethyl)-1H-pyrazol-4-yl]pyridin-2-yl}-2-methyl-2,3-dihydro-1H-isoindol-1-one], 31.7 nM; for `Cc1nc2cc(-c3ncc(F)cc3-c3cnn(CC(C)(C)C(C)(F)F)c3)ccc2n1C` [Example 103, 5-(3-(1-(3,3-difluoro-2,2-dimethylbutyl)-1H-pyrazol-4-yl)-5-fluoropyridin-2-yl)-1,2-dimethyl-1H-benzo[d]imidazole], 117 nM.
For `N#Cc1ccc(-c2cnn(CC3(C(F)(F)F)CC3)c2)c(-c2ccn3ccnc3c2)n1` [Example 56, 6-imidazo[1,2-a]pyridin-7-yl-5-(1-{[1-(trifluoromethyl)cyclo-propyl]methyl}-1H-pyrazol-4-yl)pyridine-2-carbonitrile] the value was 127 nM.
